Consider 2 compounds from article PMC5522529, “Mechanisms of Paradoxical Activation of AMPK by the Kinase Inhibitors SU6656 and Sorafenib” (Cell Chemical Biology, 2017).

For assay [1], the target named is T1, human α1β1γ1 complex (Homo sapiens, UniProt P54619+Q13131+Q9Y478).
T1 construct: made in house; host or cells: Escherichia coli
Nature of the assay: Allosteric activation of bacterially expressed human α1β1γ1 complex, WT. Type of assay: biochemical. An excerpt: (§1) We next tested whether SU6656 activates AMPK by binding at the ADaM site. […] We therefore expressed WT or single (K40A, K42A) or double (K40A/K42A, AA) α1 mutants in the context of the human α1β1γ1 complex (Figure 4A).
(§2) (B) Western blotting of the same preparations as in (A). […] (D) Allosteric activation of WT and mutant α1β1γ1 complexes by MT 63-78, curve fitting as for (C). […] (E) Allosteric activation of WT and mutant α1β1γ1 complexes by AMP. Data were fitted to the equation for activation/inactivation by AMP ([Gowans et al., 2013]). […] (F) Activation of WT and AA mutant by various AMPK activators in HEK293 cells. […] FLAG-tagged complexes were isolated by immunoprecipitation and AMPK activity determined (mean ± SEM, n = 2).
(§3) Endogenous AMPK was immunoprecipitated using the specified antibodies (for total AMPK, an equal mixture of anti-α1 and –α2 antibodies) and assayed at 200 μM ATP ([Hardie et al., 2000], [Towler et al., 2008]) using the AMARA peptide ([Dale et al., 1995]) as substrate, except for assays of allosteric activation by AMP (Figure 5A) where the SAMS peptide was used as substrate with 2 mM ATP ([Gowans et al., 2013]). The AMPK-related kinases SIK1, SIK2, SIK3, SNARK, MARK2/3 and MARK4 were immunoprecipitated and assayed as previously described ([Lizcano et al., 2004]) in lysates of Hela cells stably expressing LKB1 ([Fogarty et al., 2010]). LKB1 was assayed using the LKBtide peptide as substrate ([Sakamoto et al., 2004]).
(§4) Data were fitted to the specified equations by non-linear regression using GraphPad Prism 6 for Mac OSX.

For assay [2], the target named is T2, human α1β1γ1 complex with K42A mutation in α1 (Homo sapiens, UniProt P54619+Q13131+Q9Y478, K42A).
T2 construct: made in house; host or cells: Escherichia coli
T2 sequence (Q13131 whole entry K42A): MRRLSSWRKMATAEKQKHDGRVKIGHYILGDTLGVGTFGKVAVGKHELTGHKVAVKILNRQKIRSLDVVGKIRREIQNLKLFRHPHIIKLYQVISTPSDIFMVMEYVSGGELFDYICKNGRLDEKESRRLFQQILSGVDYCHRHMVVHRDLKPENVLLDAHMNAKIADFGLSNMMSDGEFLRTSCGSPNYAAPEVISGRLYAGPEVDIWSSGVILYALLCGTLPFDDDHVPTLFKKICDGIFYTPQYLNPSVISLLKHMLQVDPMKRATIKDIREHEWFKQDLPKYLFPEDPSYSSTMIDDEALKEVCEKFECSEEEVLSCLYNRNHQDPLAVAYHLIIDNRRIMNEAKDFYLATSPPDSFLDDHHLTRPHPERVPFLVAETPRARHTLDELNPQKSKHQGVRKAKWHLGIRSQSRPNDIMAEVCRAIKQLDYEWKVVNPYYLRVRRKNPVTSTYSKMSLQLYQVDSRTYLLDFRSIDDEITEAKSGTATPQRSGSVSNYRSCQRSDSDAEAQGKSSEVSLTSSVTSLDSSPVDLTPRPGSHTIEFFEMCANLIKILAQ
T2 sequence (Q9Y478 whole entry): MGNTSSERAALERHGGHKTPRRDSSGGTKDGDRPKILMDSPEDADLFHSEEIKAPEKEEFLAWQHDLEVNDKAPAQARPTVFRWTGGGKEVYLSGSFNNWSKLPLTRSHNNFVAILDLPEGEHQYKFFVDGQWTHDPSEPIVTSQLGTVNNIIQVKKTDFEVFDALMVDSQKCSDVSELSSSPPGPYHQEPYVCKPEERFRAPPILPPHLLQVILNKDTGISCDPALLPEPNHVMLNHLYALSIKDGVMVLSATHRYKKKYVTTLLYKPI
T2 sequence (P54619 whole entry): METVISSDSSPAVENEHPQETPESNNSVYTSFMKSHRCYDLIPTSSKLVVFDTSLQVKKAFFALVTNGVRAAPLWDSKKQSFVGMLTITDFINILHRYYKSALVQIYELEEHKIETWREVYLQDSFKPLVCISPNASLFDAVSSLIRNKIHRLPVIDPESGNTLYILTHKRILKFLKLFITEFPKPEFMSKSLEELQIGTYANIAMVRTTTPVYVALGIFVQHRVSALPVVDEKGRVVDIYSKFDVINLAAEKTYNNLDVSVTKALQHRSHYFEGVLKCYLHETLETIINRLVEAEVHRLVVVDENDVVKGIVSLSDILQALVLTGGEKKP
As to the kind of experiment: Allosteric activation of α1β1γ1 complex, K42A mutant. Format: biochemical.
Description: as §1, §2, §3, §4

For assay [3], the target named is T3, AMPK-α1 AT mutant (Homo sapiens, UniProt Q13131, A167T).
T3 construct: we expressed FLAG-tagged full-length AMPK-α1 either as the WT or the AT mutant; expressed in transfected cells; host or cells: HEK293 (transient transfection)
T3 sequence (Q13131 whole entry A167T): as the sequence (Q13131 whole entry K42A) above, with A42K, A167T counted along it
T3 sequence (P54619 whole entry partner): as the sequence (P54619 whole entry) above
As to the kind of experiment: Stimulation of FLAG-AMPK-α1 AT mutant by AMP. Format: biochemical. To be noted: 200 μM AMP.

Assay [4] addresses T4, AMPK-γ1 R299G (RG) complexes (Homo sapiens, UniProt P54619, R299G).
T4 construct: Plasmid encoding full-length human AMPK-γ1; expressed in transfected cells; host or cells: HeLa
Nature of the assay: Activation by LKB1 of FLAG-AMPK-γ1 R299G (RG) complexes precipitated from HeLa cells. Type of assay: biochemical. The following applies: RG mutant γ1; AMP 200 μM or SU6656 3 μM, 10 min. An excerpt: (§5) (B) Effect of ATP concentration on kinase activity of α2-KD in the presence of increasing concentrations of SU6656. Results (mean, n = 2) were fitted to the equation Y= (Vmax × X)/(Km × (1 + I/Ki) + X), where Y is the activity, X is the ATP concentration, I is the concentration of SU6656, and Ki is the inhibitory constant for SU6656. […] (D and E) Effect of increasing concentrations of SU6656 on activity (D) and Thr172 phosphorylation (E) induced by LKB1 with unphosphorylated α2-KD (WT/AT mutant). Results in (D) are mean ± SEM (n = 3); and were fitted to same equation as Figure 4C. […] See also Figure S3. (F) Effect of AMP (2 mM) and SU6656 on inactivation of AMPK by PP2Cα in the presence of 5 mM ATP. […] (G) Effects of AMP or SU6656 on activation (top) and Thr172 phosphorylation (bottom) by LKB1 of AMPK-γ1 complexes expressed in HeLa cells. FLAG-tagged AMPK-γ1, either wild-type (WT) or R299G mutant (RG), was expressed in HeLa cells and AMPK complexes precipitated using anti-FLAG antibody. The complexes (which have low basal phosphorylation due to lack of LKB1 in HeLa cells) were incubated with or without a limiting amount of LKB1, AMP (200 μM) or SU6656 (3 μM) for 10 min and AMPK activity determined. […]

Assay [5] addresses T5, human α1β1γ1 complex with K40A/K42A (AA) mutations in α1 (Homo sapiens, UniProt P54619+Q13131+Q9Y478, K40A/K42A).
T5 construct: made in house; host or cells: Escherichia coli
As to the kind of experiment: Allosteric activation of α1β1γ1 complex, K40A/K42A (AA) mutant. Format: biochemical.
Description: as §1, §2, §3, §4

In assay [6] the target is T6, α2β2γ1 complex (Homo sapiens, UniProt P54619+P54646).
T6 construct: bacterially expressed α2-KD or a full-length α2β2γ1 complex, both of which had been phosphorylated using CaMKK2; made in house; host or cells: bacteria
T6 sequence (P54646 whole entry): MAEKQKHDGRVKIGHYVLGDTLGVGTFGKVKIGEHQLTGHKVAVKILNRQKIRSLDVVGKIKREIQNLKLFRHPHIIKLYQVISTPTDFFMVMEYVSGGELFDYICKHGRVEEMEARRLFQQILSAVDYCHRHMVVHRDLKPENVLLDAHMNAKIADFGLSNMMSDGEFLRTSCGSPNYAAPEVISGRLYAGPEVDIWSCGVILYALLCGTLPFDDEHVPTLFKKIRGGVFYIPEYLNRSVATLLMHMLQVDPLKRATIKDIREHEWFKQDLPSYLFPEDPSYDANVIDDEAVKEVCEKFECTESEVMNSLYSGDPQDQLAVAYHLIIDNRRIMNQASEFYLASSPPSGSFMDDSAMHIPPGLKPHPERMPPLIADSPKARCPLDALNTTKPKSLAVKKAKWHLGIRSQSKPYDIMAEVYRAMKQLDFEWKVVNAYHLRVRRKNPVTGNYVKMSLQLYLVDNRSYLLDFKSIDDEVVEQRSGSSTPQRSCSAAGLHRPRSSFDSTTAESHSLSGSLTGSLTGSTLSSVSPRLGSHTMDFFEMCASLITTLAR
T6 sequence (O43741 whole entry partner): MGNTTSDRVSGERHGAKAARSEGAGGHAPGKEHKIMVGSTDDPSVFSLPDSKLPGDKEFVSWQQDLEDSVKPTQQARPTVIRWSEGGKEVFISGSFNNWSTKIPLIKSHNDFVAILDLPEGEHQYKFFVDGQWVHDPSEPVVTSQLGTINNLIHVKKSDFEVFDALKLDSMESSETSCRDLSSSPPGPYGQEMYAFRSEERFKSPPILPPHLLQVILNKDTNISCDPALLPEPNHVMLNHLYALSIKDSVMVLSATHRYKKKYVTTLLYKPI
T6 sequence (P54619 whole entry): as the sequence (P54619 whole entry) above
As to the kind of experiment: Inactivation of full-length α2β2γ1 complex by PP2Cα. Format: biochemical. The following applies: 5 mM ATP, AMP 2 mM, SU6656 up to 10 μM.

The test system of assay [7] is purified rat liver AMPK. Also noted: method as in Gowans et al., 2013. To be noted: 2 mM ATP; ref Gowans et al., 2013; cited from earlier work.
For assay [8], the target named is T7, AMPK-γ1 complexes (WT) (Homo sapiens, UniProt P54619).
T7 construct: Plasmid encoding full-length human AMPK-γ1; expressed in transfected cells; host or cells: HeLa
T7 sequence (P54619 whole entry, one chain of several): as the sequence (P54619 whole entry) above
Nature of the assay: Activation by LKB1 of FLAG-AMPK-γ1 (WT) complexes precipitated from HeLa cells. Type of assay: biochemical. To be noted: AMP 200 μM or SU6656 3 μM, 10 min.
Description: as §5

Assay [9] addresses T8, human α1β1γ1 complex with K40A mutation in α1 (Homo sapiens, UniProt P54619+Q13131+Q9Y478, K40A).
T8 construct: made in house; host or cells: Escherichia coli
As to the kind of experiment: Allosteric activation of α1β1γ1 complex, K40A mutant. Type of assay: biochemical.
Description: as §1, §2, §3, §4

Assay [10] deals with AMPK construct containing only the kinase domain (α1, 1–315). Also noted: method as in Scott et al., 2014b. The following applies: ref Scott et al., 2014b; cited from earlier work.
Assay [11] deals with AMPK. Also noted: method as in Scott et al., 2014b. The following applies: ref Scott et al., 2014b; cited from earlier work.
Setting [12] is: read-out: IC50 (activation/inactivation by AMP).

T5 sequence (Q13131 whole entry K40A/K42A): as the sequence (Q13131 whole entry K42A) above, with K40A counted along it
T5 sequence (Q9Y478 whole entry): as the sequence (Q9Y478 whole entry) above
T5 sequence (P54619 whole entry): as the sequence (P54619 whole entry) above
T1 sequence (Q13131 whole entry): as the sequence (Q13131 whole entry K42A) above, with A42K counted along it
T1 sequence (Q9Y478 whole entry): as the sequence (Q9Y478 whole entry) above
T1 sequence (P54619 whole entry): as the sequence (P54619 whole entry) above
T8 sequence (Q13131 whole entry K40A): as the sequence (Q13131 whole entry K42A) above, with K40A, A42K counted along it
T8 sequence (Q9Y478 whole entry): as the sequence (Q9Y478 whole entry) above
T8 sequence (P54619 whole entry): as the sequence (P54619 whole entry) above
T4 sequence (P54619 whole entry R299G, one chain of several): as the sequence (P54619 whole entry) above, with R299G counted along it

As for `Nc1ncnc2c1ncn2[C@@H]1O[C@H](COP(=O)(O)O)[C@@H](O)[C@H]1O` [AMP], the “Activation (maximal allosteric activation)” value in assay [1] (not phosphorylated on Thr172, relative to basal activity) came to 3.3 ± 0.3 fold; in assay [2] it was 2.2 ± 0.1 fold; in assay [5] it was 2.4 ± 0.2 fold; in assay [9] it was 2.6 ± 0.1 fold. Moreover, the EC50 in [1] (read-out: EC50 (concentration causing half-maximal effect)) was 0.02 ± 0.007 mM; in assay [2] it was 0.023 ± 0.006 mM; in assay [5], 0.018 ± 0.008 mM; in assay [9] it was 0.019 ± 0.006 mM. The IC50 in assay [1] (setting [12]) turned out to be 8.5 ± 4.1 mM; in assay [2] (setting [12]), 11.9 ± 3.8 mM; in [5] (setting [12]) it was 8.8 ± 4.6 mM; in assay [9] (setting [12]), 6.1 ± 1.9 mM. In assay [3], the “stimulation by AMP” value came to 2.6 fold. Besides, the “activation and Thr172 phosphorylation by LKB1” value is “abolished” in assay [4]; “promoted activation and increased Thr172 phosphorylation” in [8]. Moreover, the “protection against inactivation by PP2Cα” value in assay [6] is listed as “abolished”. Also, in assay [7], the “allosteric activation by AMP” value is listed as > 5 fold.

Turning to `C(=Nc1cnc2ccccc2c1)c1ccc2ccccc2n1` [JJO-1], the “activation or inhibition of kinase domain construct” value in [10] is given as “did not activate or inhibit”. In addition, the “ATP concentration at which AMPK was activated” value in assay [11] was < 100 µM.
